{
  "source": "patent US6716838B1",
  "about": "“Substituted polycyclic aryl and heteroaryl uracils as anticoagulative agents” (Pharmacia Corporation, priority 1999, dated 2004)",
  "type_in_all_cases": "biochemical",
  "key": {"human thrombin": {"target": "human thrombin (Homo sapiens, UniProt P00734)", "test": "Thrombin Assay", "conditions": "chromogenic substrate, 60 min at room temperature, pH 8.0; read-out: Thrombin II IC50", "experimental": "(§1) 0.28 nM human thrombin and 0.06 mM H-D-Phenylalanyl-L-pipecolyl-L-argioine-p-nitroaniline dihydrochloride are added to a 96-well assay plate containing either inhibitor or buffer (50 mM Tris-HCl, pH 8.0, 100 mM NaCl, 0.1% BSA). The reaction, in a final volume of 100 ul is measured immediately at 405 nm to determine background absorbance. The plate is incubated at room temperature for 60 min, at which time the rate of hydrolysis of the substrate is measured by monitoring the reaction at 405 nm for the release of p-nitroaniline. Percent inhibition of thrombin activity is calculated from OD405 nm value from the experimental and control sample.\n(§2) Recombinant soluble TF, consisting of amino acids 1-219 of the mature protein sequence was expressed in E. coli and purified using a Mono Q Sepharose FPLC. Recombinant human VIIa was purchased from American Diagnostica, Greenwich Conn. and chromogenic substrate N-Methylsulfonyl-D-phe-gly-arg-p-nitroaniline was prepared by American Peptide Company, Inc., Sunnyvale, Calif. Factor Xa was obtained from Enzyme Research Laboratories, South Bend Ind., thrombin from Calbiochem, La Jolla, Calif., and trypsin and L-BAPNA from Sigma, St Louis Mo. The chromogenic substrates S-2765 and S-2238 were purchased from Chromogenix, Sweden."}, "[1]": {"target": "T1, recombinant soluble tissue factor and recombinant human factor VIIa (Homo sapiens, UniProt P08709)", "T1 construct": "purchased American Diagnostica, Greenwich Conn; (factor VIIa); soluble TF made in house; host or cells: E. coli (soluble TF only)", "T1 sequence (P08709 213-466 limits assumed)": "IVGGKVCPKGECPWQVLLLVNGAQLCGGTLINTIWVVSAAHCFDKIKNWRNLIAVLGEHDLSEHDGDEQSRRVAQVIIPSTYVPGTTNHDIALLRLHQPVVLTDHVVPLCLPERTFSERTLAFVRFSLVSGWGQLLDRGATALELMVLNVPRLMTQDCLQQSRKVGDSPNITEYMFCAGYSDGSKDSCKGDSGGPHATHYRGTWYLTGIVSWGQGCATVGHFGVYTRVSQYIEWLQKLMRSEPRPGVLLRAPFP", "T1 sequence (P08709 61-212 limits assumed)": "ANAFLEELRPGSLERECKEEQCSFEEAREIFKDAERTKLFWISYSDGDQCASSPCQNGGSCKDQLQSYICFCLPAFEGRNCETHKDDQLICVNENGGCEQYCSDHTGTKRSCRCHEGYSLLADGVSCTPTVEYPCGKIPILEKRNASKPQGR", "T1 sequence (P13726 33-251 partner limits assumed)": "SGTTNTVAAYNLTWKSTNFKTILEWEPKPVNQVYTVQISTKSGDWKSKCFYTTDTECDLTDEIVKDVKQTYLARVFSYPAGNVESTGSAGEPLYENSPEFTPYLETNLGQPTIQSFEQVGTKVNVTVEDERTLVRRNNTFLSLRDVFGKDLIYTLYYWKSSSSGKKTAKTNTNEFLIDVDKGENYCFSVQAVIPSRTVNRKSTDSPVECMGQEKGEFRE", "test": "TF-VIIa Assay", "conditions": "chromogenic substrate, 60 min at room temperature, pH 8.0", "experimental": "as §1, with “In this assay 100” for “0.28”, “nM recombinant soluble tissue factor and 2 nM recombinant” for “nM”, “factor VIIa” for “thrombin and 0.06 mM H-D-Phenylalanyl-L-pipecolyl-L-argioine-p-nitroaniline dihydrochloride”, “containing 0.4 mM of the substrate, N-Methylsulfonyl-D-phe-gly-arg-p-nitroaniline and” for “containing”, “(5 mM CaCl2, 50” for “(50”, “TF-VIIa” for “thrombin”\nas §2"}, "[2]": {"target": "T2, trypsin, type IX from porcine pancreas (Sus scrofa, UniProt P00761)", "T2 construct": "purchased Sigma, St Louis Mo. type IX; host or cells: porcine pancreas", "T2 sequence (P00761 9-231)": "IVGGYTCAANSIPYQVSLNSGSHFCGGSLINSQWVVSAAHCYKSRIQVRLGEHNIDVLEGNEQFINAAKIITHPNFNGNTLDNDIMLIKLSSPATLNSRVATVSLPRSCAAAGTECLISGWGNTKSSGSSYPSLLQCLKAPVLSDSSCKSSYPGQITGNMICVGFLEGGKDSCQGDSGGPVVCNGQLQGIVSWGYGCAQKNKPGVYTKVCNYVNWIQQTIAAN", "test": "Trypsin Assay", "conditions": "substrate L-BAPNA, 60 min at room temperature, pH 8.0; read-out: Trypsin II IC50", "experimental": "5 ug/ml trypsin, type IX from porcine pancreas and 0.375 mM N-α-Benzoyl-L-arginine-p-nitroanilide (LBAPNA) are added to a 96-well assay plate containing either inhibitor or buffer (50 mM Tris-HCl, pH 8.0, 100 mM NaCl, 0.1% BSA). The reactions, in a final volume of 100 ul are measured immediately at 405 nm to determine background absorbance. The plate is incubated at room temperature for 60 min, at which time the rate of hydrolysis of the substrate is measured by monitoring the reaction at 405 nm for the release of p-nitroaniline. Percent inhibition of trypsin activity is calculated from OD405 nm value from the experimental and control sample.\nas §2"}, "human factor Xa": {"target": "T3, human factor Xa (Homo sapiens, UniProt P00742)", "T3 construct": "leads from XII to XIIa to XIa to IXa and to the conversion of X to Xa; purchased Enzyme Research Laboratories, South Bend Ind", "T3 sequence (P00742 235-488 limits assumed)": "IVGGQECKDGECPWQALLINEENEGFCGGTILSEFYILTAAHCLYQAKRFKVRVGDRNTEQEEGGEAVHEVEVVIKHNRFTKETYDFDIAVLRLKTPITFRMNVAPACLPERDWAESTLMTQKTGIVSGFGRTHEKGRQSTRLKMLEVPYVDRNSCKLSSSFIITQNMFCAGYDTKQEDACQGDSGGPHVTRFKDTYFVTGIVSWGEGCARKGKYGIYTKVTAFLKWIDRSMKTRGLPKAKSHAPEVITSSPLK", "T3 sequence (P00742 41-179 limits assumed)": "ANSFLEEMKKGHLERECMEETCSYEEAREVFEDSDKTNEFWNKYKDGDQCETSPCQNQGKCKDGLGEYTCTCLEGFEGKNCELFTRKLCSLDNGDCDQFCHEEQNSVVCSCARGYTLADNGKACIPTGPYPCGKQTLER", "test": "Xa Assay", "conditions": "substrate S-2765, 60 min at room temperature, pH 8.0", "experimental": "as §1, with “0.3 nM” for “0.28 nM”, “human factor Xa” for “human thrombin”, “and 0.15” for “and 0.06”, “mM N-α-Benzyloxycarbonyl-D-arginyl-L-glycyl-L-arginine-p-nitroaniline-dihydrochloride (S-2765)” for “mM H-D-Phenylalanyl-L-pipecolyl-L-argioine-p-nitroaniline dihydrochloride”, “of Xa” for “of thrombin”\nas §2"}},
  "data": [
    {"molecule": "N=C(N)NCCC[C@H](NC(=O)Cn1c(=O)c(NS(=O)(=O)Cc2ccccc2)cn(Cc2ccccc2)c1=O)C(=O)c1nccs1", "note": "[Example 2]", "values": [
      {"measurement": "IC50", "setting": "human thrombin", "value": 300, "unit": "nM"},
      {"measurement": "IC50", "setting": "[1]", "value": 12900, "unit": "nM"},
      {"measurement": "IC50", "setting": "[2]", "value": 200, "unit": "nM"},
      {"measurement": "IC50", "setting": "human factor Xa", "value": 200, "unit": "nM"}
    ]},
    {"molecule": "N=C(N)c1ccc(CNC(=O)Cn2c(=O)c(NS(=O)(=O)Cc3ccccc3)cn(Cc3ccccc3)c2=O)cc1", "note": "[Example 1]", "values": [
      {"measurement": "IC50", "setting": "human thrombin", "value": 13000, "unit": "nM"},
      {"measurement": "IC50", "setting": "[1]", "value": "> 100000", "unit": "nM"},
      {"measurement": "IC50", "setting": "[2]", "value": 400, "unit": "nM"},
      {"measurement": "IC50", "setting": "human factor Xa", "value": 25600, "unit": "nM"}
    ]}
  ]
}
